From the NIST ThermoML archive (doi:10.1016/j.jct.2008.03.017)
Numbers after ± are expanded uncertainties.

Conditions: Liquid; for mass density: 101.33 kPa

| mass density (298.15 K) [kg/m3] | vapor or sublimation pressure (298.15 K) [kPa] | mass density (328.15 K) [kg/m3] | vapor or sublimation pressure (328.15 K) [kPa] | Compound |
| --- | --- | --- | --- | --- |
| 873.5 | 1.255 ± 0.13 | 859.01 | 5.965 ± 0.13 | CCCCCCCl [1-chlorohexane] |
| 881.95 ± 0.45 | 21.61 ± 0.15 | 865.36 ± 0.49 | 70.61 ± 0.22 | C1CCOC1 [tetrahydrofuran] |
| 878.81 ± 0.81 | 9.56 ± 0.14 | 863.67 ± 0.85 | 33.95 ± 0.17 | C1CCOCC1 [tetrahydropyran] |

More lines, now with the values behind:

| Compound | mass density (298.15 K) [kg/m3] | vapor or sublimation pressure (298.15 K) [kPa] | mass density (328.15 K) [kg/m3] | vapor or sublimation pressure (328.15 K) [kPa] |
| --- | --- | --- | --- | --- |
| C1COCO1 [1,3-dioxolane] | 1058.62 ± 0.71 | 13.54 ± 0.14 | 1039.88 ± 0.64 | 49.01 ± 0.19 |
| C1COCCO1 [1,4-dioxane] | 1027.87 ± 0.6 | 4.9 ± 0.13 | 1010.69 ± 0.53 | 19.54 ± 0.15 |
